Results taken from ChEMBL document CHEMBL4507300 (2021).

Legend:
[1] = biological target: Activin receptor type-1 (Homo sapiens) (UniProt Q04771); details: Compound concentration 1000.0 nM
[2] = biological target: Atypical kinase COQ8B, mitochondrial (Homo sapiens) (UniProt Q96D53); details: Compound concentration 1000.0 nM
[3] = biological target: Calcium/calmodulin-dependent protein kinase type II subunit alpha (Homo sapiens) (UniProt Q9UQM7); details: Compound concentration 1000.0 nM
[4] = biological target: Cyclin-dependent kinase 11B (Homo sapiens) (UniProt P21127); details: Compound concentration 1000.0 nM
[5] = biological target: Cyclin-dependent kinase 5 (Homo sapiens) (UniProt Q00535); details: Compound concentration 1000.0 nM
[6] = biological target: Cyclin-dependent kinase 9 (Homo sapiens) (UniProt P50750); details: Compound concentration 1000.0 nM
[7] = biological target: Serine/threonine-protein kinase Chk1 (Homo sapiens) (UniProt O14757); details: Compound concentration 1000.0 nM
[8] = biological target: Casein kinase I isoform alpha (Homo sapiens) (UniProt P48729); details: Compound concentration 1000.0 nM
[9] = biological target: Casein kinase II subunit alpha' (Homo sapiens) (UniProt P19784); details: Compound concentration 1000.0 nM
[10] = biological target: Ephrin type-A receptor 3 (Homo sapiens) (UniProt P29320); details: Compound concentration 1000.0 nM
[11] = biological target: Tyrosine-protein kinase Fyn (Homo sapiens) (UniProt P06241); details: Compound concentration 1000.0 nM
[12] = biological target: Inhibitor of nuclear factor kappa-B kinase subunit alpha (Homo sapiens) (UniProt O15111); details: Compound concentration 1000.0 nM
[13] = biological target: Tyrosine-protein kinase JAK1 (Homo sapiens) (UniProt P23458); details: Compound concentration 1000.0 nM
[14] = test system: Mast/stem cell growth factor receptor Kit (Homo sapiens), P10721 [D816H]; details: Compound concentration 1000.0 nM
[15] = biological target: MAP kinase-activated protein kinase 5 (Homo sapiens) (UniProt Q8IW41); details: Compound concentration 1000.0 nM
[16] = biological target: MAP/microtubule affinity-regulating kinase 3 (Homo sapiens) (UniProt P27448); details: Compound concentration 1000.0 nM
[17] = biological target: Dual specificity mitogen-activated protein kinase kinase 1 (Homo sapiens) (UniProt Q02750); details: Compound concentration 1000.0 nM
[18] = biological target: Dual specificity mitogen-activated protein kinase kinase 5 (Homo sapiens) (UniProt Q13163); details: Compound concentration 1000.0 nM
[19] = biological target: Hepatocyte growth factor receptor (Homo sapiens) (UniProt P08581); details: Compound concentration 1000.0 nM
[20] = biological target: Serine/threonine-protein kinase 4 (Homo sapiens) (UniProt Q13043); details: Compound concentration 1000.0 nM
[21] = biological target: Myosin-IIIa (Homo sapiens) (UniProt Q8NEV4); details: Compound concentration 1000.0 nM
[22] = biological target: Myosin-IIIb (Homo sapiens) (UniProt Q8WXR4); details: Compound concentration 1000.0 nM
[23] = biological target: Serine/threonine-protein kinase PAK 4 (Homo sapiens) (UniProt O96013); details: Compound concentration 1000.0 nM
[24] = biological target: Serine/threonine-protein kinase PAK 6 (Homo sapiens) (UniProt Q9NQU5); details: Compound concentration 1000.0 nM
[25] = biological target: Cyclin-dependent kinase 16 (Homo sapiens) (UniProt Q00536); details: Compound concentration 1000.0 nM
[26] = test system: Phosphatidylinositol 4,5-bisphosphate 3-kinase catalytic subunit alpha isoform (Homo sapiens), P42336 [H1047L]; details: Compound concentration 1000.0 nM
[27] = test system: Phosphatidylinositol 4,5-bisphosphate 3-kinase catalytic subunit alpha isoform (Homo sapiens), P42336 [I800L]; details: Compound concentration 1000.0 nM
[28] = biological target: Phosphatidylinositol 5-phosphate 4-kinase type-2 beta (Homo sapiens) (UniProt P78356); details: Compound concentration 1000.0 nM
[29] = biological target: Serine/threonine-protein kinase PLK4 (Homo sapiens) (UniProt O00444); details: Compound concentration 1000.0 nM
[30] = biological target: Serine/threonine-protein kinase D1 (Homo sapiens) (UniProt Q15139); details: Compound concentration 1000.0 nM
[31] = biological target: Serine/threonine-protein kinase D3 (Homo sapiens) (UniProt O94806); details: Compound concentration 1000.0 nM
[32] = biological target: Dual serine/threonine and tyrosine protein kinase (Homo sapiens) (UniProt Q6XUX3); details: Compound concentration 1000.0 nM
[33] = biological target: Ribosomal protein S6 kinase alpha-5 (Homo sapiens) (UniProt O75582); details: Compound concentration 1000.0 nM
[34] = biological target: Ribosomal protein S6 kinase alpha-1 (Homo sapiens) (UniProt Q15418); details: Compound concentration 1000.0 nM
[35] = biological target: Ribosomal protein S6 kinase alpha-6 (Homo sapiens) (UniProt Q9UK32); details: Compound concentration 1000.0 nM
[36] = biological target: Serine/threonine-protein kinase Sgk3 (Homo sapiens) (UniProt Q96BR1); details: Compound concentration 1000.0 nM
[37] = biological target: SRSF protein kinase 2 (Homo sapiens) (UniProt P78362); details: Compound concentration 1000.0 nM
[38] = biological target: SRSF protein kinase 3 (Homo sapiens) (UniProt Q9UPE1); details: Compound concentration 1000.0 nM
[39] = biological target: Serine/threonine-protein kinase TBK1 (Homo sapiens) (UniProt Q9UHD2); details: Compound concentration 1000.0 nM
[40] = biological target: Dual specificity testis-specific protein kinase 1 (Homo sapiens) (UniProt Q15569); details: Compound concentration 1000.0 nM
[41] = biological target: Wee1-like protein kinase (Homo sapiens) (UniProt P30291); details: Compound concentration 1000.0 nM
[42] = biological target: Wee1-like protein kinase 2 (Homo sapiens) (UniProt P0C1S8); details: Compound concentration 1000.0 nM
[43] = biological target: Mitogen-activated protein kinase kinase kinase 19 (Homo sapiens) (UniProt Q56UN5); details: Compound concentration 1000.0 nM
[44] = biological target: 5-hydroxytryptamine receptor 6 (Homo sapiens) (UniProt P50406); details: Compound concentration 10.0 uM
[45] = biological target: D(1A) dopamine receptor (Homo sapiens) (UniProt P21728); details: Compound concentration 10.0 uM

Myosin-IIIb (Homo sapiens), sequence (Q8WXR4 whole entry): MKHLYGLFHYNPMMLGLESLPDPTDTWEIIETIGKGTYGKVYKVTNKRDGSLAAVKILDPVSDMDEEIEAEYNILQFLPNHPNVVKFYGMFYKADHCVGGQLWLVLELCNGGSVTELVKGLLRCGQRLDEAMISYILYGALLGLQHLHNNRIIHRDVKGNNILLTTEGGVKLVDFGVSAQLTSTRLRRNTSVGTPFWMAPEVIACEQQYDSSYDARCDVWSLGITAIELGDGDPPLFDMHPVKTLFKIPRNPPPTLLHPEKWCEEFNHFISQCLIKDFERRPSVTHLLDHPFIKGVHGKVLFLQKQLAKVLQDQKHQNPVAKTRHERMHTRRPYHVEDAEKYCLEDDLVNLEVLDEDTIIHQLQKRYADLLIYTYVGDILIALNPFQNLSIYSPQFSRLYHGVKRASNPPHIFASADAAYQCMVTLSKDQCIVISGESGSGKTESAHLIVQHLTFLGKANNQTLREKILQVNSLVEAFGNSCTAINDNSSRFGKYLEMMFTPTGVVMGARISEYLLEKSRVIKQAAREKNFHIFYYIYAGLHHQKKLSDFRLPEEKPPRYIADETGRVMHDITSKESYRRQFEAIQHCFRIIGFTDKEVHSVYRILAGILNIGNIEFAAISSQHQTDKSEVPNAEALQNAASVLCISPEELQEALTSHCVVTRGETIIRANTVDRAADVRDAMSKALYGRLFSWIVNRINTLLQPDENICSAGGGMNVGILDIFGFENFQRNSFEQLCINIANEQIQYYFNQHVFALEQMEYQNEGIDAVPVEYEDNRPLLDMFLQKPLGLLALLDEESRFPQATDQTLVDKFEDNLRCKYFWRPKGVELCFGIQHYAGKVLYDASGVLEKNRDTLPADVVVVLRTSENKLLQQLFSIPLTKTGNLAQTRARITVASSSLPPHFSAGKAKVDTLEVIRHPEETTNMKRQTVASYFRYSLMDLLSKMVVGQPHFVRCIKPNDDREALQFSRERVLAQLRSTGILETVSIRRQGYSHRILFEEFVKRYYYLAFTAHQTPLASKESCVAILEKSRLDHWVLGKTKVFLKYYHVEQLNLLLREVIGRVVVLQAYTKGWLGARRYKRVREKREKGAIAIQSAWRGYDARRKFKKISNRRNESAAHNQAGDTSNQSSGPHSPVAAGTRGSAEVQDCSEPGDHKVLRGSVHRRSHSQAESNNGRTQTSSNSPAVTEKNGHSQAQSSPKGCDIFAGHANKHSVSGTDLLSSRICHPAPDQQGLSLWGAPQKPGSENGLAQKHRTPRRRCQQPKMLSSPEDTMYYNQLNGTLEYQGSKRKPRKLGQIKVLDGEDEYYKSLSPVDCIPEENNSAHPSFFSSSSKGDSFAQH
Ribosomal protein S6 kinase alpha-1 (Homo sapiens), sequence (Q15418 whole entry): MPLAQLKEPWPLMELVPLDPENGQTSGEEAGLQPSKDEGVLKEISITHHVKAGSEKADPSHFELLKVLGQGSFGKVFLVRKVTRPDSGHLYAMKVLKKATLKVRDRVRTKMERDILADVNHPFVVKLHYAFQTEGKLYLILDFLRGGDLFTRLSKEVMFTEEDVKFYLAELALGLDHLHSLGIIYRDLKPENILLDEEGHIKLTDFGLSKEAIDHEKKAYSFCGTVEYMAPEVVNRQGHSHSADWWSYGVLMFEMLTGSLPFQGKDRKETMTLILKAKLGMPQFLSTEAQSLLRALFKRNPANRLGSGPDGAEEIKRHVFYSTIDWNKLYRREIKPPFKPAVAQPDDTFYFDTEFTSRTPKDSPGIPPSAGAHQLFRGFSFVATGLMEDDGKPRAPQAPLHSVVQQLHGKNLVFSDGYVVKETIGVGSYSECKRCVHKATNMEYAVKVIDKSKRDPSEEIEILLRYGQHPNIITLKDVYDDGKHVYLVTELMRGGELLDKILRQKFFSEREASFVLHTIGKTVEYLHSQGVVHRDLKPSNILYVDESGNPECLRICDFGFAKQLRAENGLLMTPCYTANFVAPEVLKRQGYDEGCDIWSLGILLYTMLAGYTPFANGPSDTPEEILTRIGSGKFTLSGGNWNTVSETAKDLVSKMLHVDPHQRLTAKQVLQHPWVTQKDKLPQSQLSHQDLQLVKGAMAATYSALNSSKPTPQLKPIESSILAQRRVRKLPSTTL
Dual specificity mitogen-activated protein kinase kinase 5 (Homo sapiens), sequence (Q13163 whole entry): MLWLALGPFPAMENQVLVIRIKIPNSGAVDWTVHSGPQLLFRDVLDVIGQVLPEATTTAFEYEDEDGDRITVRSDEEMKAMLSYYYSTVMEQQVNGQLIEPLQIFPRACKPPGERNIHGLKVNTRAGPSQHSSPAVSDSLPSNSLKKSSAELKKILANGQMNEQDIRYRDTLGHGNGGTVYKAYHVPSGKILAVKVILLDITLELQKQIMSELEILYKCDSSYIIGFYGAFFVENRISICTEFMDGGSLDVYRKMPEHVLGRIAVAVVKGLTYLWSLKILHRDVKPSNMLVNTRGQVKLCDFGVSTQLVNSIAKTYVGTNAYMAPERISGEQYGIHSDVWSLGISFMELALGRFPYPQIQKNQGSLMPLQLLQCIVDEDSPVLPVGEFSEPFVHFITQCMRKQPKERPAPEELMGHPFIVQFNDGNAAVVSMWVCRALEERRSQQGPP
Serine/threonine-protein kinase Sgk3 (Homo sapiens), sequence (Q96BR1 whole entry): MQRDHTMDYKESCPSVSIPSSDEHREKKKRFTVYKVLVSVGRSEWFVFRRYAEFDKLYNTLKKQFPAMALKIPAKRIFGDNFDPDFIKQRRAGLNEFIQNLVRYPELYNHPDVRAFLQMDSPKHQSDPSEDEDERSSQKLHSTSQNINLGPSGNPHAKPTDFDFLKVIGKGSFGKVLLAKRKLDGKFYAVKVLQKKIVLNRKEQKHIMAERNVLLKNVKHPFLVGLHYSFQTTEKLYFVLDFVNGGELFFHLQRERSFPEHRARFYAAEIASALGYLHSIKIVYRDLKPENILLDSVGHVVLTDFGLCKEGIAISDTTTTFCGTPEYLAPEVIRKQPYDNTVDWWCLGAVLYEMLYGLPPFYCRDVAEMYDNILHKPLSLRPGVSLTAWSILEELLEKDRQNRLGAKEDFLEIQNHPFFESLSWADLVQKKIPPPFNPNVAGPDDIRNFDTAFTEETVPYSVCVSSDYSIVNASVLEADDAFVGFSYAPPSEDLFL
Ribosomal protein S6 kinase alpha-5 (Homo sapiens), sequence (O75582 whole entry, looked up): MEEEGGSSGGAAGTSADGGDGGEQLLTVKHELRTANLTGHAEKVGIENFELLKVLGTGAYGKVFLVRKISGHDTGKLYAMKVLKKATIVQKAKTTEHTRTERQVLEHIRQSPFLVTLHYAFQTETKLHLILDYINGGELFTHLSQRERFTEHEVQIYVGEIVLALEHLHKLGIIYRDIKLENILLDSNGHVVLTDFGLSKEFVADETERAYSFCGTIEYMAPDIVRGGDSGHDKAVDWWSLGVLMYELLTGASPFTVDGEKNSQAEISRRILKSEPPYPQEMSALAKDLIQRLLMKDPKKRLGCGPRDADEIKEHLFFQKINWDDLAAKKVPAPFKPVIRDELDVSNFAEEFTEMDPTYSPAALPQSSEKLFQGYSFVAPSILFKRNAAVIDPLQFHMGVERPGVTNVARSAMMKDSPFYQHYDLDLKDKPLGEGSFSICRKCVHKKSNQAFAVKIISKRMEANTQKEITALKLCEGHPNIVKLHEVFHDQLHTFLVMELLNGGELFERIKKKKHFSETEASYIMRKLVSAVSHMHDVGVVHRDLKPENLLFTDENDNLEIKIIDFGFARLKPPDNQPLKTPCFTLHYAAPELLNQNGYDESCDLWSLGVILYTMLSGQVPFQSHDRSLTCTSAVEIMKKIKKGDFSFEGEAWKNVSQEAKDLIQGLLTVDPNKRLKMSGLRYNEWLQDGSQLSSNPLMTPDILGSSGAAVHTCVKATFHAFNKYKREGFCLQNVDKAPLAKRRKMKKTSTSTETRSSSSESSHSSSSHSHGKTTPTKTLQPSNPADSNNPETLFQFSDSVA
Mast/stem cell growth factor receptor Kit (Homo sapiens), P10721 [D816H], sequence (P10721 whole entry D816H): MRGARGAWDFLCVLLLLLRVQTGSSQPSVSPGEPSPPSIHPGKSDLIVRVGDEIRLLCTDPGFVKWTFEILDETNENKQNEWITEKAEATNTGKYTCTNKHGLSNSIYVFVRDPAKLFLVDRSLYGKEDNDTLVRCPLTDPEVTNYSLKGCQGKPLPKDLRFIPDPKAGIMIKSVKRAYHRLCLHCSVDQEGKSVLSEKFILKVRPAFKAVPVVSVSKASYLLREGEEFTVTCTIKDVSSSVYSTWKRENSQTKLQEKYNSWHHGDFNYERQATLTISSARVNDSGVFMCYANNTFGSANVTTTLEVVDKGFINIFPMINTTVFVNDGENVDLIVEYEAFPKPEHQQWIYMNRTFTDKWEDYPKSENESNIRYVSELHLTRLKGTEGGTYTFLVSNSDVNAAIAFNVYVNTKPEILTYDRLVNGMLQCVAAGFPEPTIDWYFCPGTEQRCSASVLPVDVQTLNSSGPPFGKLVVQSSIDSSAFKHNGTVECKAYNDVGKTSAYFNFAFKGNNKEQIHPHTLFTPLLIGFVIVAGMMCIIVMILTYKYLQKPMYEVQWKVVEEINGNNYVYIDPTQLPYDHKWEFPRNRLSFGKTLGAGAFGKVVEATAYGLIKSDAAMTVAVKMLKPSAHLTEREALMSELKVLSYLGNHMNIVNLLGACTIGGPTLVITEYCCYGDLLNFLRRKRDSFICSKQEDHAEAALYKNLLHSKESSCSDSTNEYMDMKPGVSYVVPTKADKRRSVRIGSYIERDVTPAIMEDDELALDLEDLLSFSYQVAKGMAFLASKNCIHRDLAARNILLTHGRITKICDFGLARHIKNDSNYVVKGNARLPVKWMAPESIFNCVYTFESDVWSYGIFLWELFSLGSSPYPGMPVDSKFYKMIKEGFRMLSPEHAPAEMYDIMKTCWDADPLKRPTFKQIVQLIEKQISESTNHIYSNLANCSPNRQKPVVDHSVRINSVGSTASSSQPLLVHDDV

COc1cccc(CNC(=O)c2nc3scc(COCc4ccc(C(=O)O)cc4)c3c(=O)[nH]2)c1 [T-26c]
inactive: residual activity [1] 94.3% | residual activity [2] 93.8% | residual activity [3] 92.5% | residual activity [4] 85.4% | residual activity [5] 95.7% | residual activity [6] 78.6% | residual activity [7] 95.5% | residual activity [8] 82.1% | residual activity [9] 79.4% | residual activity [10] 91.3% | residual activity [11] 81.1% | residual activity [12] 64.8% | residual activity [13] 93.9% | residual activity [14] 59% | residual activity [15] 93.8% | residual activity [16] 100% | residual activity [17] 73.5% | residual activity [18] 100% | residual activity [19] 100% | residual activity [20] 75% | residual activity [21] 88% | residual activity [22] 100% | residual activity [23] 100% | residual activity [24] 100% | residual activity [25] 91.9% | residual activity [26] 100% | residual activity [27] 77.2% | residual activity [28] 100% | residual activity [29] 83% | residual activity [30] 100% | residual activity [31] 100% | residual activity [32] 54.5% | residual activity [33] 98% | residual activity [34] 100% | residual activity [35] 63.5% | residual activity [36] 69.2% | residual activity [37] 100% | residual activity [38] 70.1% | residual activity [39] 94% | residual activity [40] 82.8% | residual activity [41] 95.7% | residual activity [42] 96.9% | residual activity [43] 79.2% | inhibition [44] 15.8% | inhibition [45] -6.24%
